From the NIST ThermoML archive (doi:10.1021/je500381c)
Numbers after ± are expanded uncertainties.

Experiment: xn = mol fraction of the nth substance listed
Conditions: for mass density / viscosity: 100 kPa, Liquid; for mass density: Vibrating tube method; for surface tension liquid-gas: Drop volume

CC12CC3CC(C)(C1)CC(C)(C3)C2 [1,3,5-trimethyladamantane] + OCC1CCCCC1
Conditions | mass density [kg/m3] | surface tension liquid-gas [mN/m] | viscosity [mPa·s]
293.15 K, x2 = 0 | 887.48 ± 0.13 | – | 2.601 ± 0.041
293.15 K, x2 = 0.1 | 889.7 ± 0.13 | – | 2.872 ± 0.045
293.15 K, x2 = 0.2001 | 892.4 ± 0.13 | – | 3.328 ± 0.052
293.15 K, x2 = 0.2997 | 895.41 ± 0.13 | – | 3.955 ± 0.062
293.15 K, x2 = 0.4 | 898.82 ± 0.13 | – | 4.859 ± 0.076
293.15 K, x2 = 0.4994 | 902.62 ± 0.13 | – | 6.211 ± 0.097
293.15 K, x2 = 0.5991 | 906.88 ± 0.13 | – | 8.288 ± 0.13
293.15 K, x2 = 0.7 | 911.64 ± 0.13 | – | 11.51 ± 0.18
293.15 K, x2 = 0.801 | 917.1 ± 0.13 | – | 16.66 ± 0.26
293.15 K, x2 = 0.8927 | 922.52 ± 0.13 | – | 24.62 ± 0.39
298.15 K, x2 = 0 | 883.99 ± 0.13 | 26.17 ± 0.15 | 2.338 ± 0.037
298.15 K, x2 = 0.1 | 886.13 ± 0.13 | 26.18 ± 0.15 | 2.55 ± 0.04
298.15 K, x2 = 0.2001 | 888.82 ± 0.13 | 26.4 ± 0.16 | 2.939 ± 0.046
298.15 K, x2 = 0.2997 | 891.83 ± 0.13 | 26.77 ± 0.16 | 3.455 ± 0.054
298.15 K, x2 = 0.4 | 895.23 ± 0.13 | 27.22 ± 0.16 | 4.184 ± 0.065
298.15 K, x2 = 0.4994 | 899.02 ± 0.13 | 27.65 ± 0.16 | 5.256 ± 0.082
298.15 K, x2 = 0.5991 | 903.29 ± 0.13 | 28.16 ± 0.16 | 6.866 ± 0.11
298.15 K, x2 = 0.7 | 908.13 ± 0.13 | 28.88 ± 0.16 | 9.343 ± 0.15
298.15 K, x2 = 0.801 | 913.53 ± 0.13 | 29.74 ± 0.17 | 13.22 ± 0.21
298.15 K, x2 = 0.8927 | 918.95 ± 0.13 | 30.63 ± 0.17 | 19.19 ± 0.3
303.15 K, x2 = 0 | 880.47 ± 0.13 | – | 2.118 ± 0.033
303.15 K, x2 = 0.1 | 882.54 ± 0.13 | – | 2.297 ± 0.036
303.15 K, x2 = 0.2001 | 885.21 ± 0.13 | – | 2.615 ± 0.041
303.15 K, x2 = 0.2997 | 888.21 ± 0.13 | – | 3.041 ± 0.048
303.15 K, x2 = 0.4 | 891.61 ± 0.13 | – | 3.639 ± 0.057
303.15 K, x2 = 0.4994 | 895.4 ± 0.13 | – | 4.492 ± 0.07
303.15 K, x2 = 0.5991 | 899.66 ± 0.13 | – | 5.76 ± 0.09
303.15 K, x2 = 0.7 | 904.52 ± 0.13 | – | 7.681 ± 0.12
303.15 K, x2 = 0.801 | 909.91 ± 0.13 | – | 10.65 ± 0.17
303.15 K, x2 = 0.8927 | 915.34 ± 0.13 | – | 15.28 ± 0.24
308.15 K, x2 = 0 | 876.94 ± 0.13 | – | 1.93 ± 0.03
308.15 K, x2 = 0.1 | 878.93 ± 0.13 | – | 2.072 ± 0.032
308.15 K, x2 = 0.2001 | 881.59 ± 0.13 | – | 2.336 ± 0.037
308.15 K, x2 = 0.2997 | 884.59 ± 0.13 | – | 2.694 ± 0.042
308.15 K, x2 = 0.4 | 887.97 ± 0.13 | – | 3.187 ± 0.05
308.15 K, x2 = 0.4994 | 891.76 ± 0.13 | – | 3.876 ± 0.061
308.15 K, x2 = 0.5991 | 896.02 ± 0.13 | – | 4.884 ± 0.076
308.15 K, x2 = 0.7 | 900.87 ± 0.13 | – | 6.386 ± 0.1
308.15 K, x2 = 0.801 | 906.27 ± 0.13 | – | 8.659 ± 0.14
308.15 K, x2 = 0.8927 | 911.73 ± 0.13 | – | 12.26 ± 0.19
313.15 K, x2 = 0 | 873.4 ± 0.13 | – | 1.765 ± 0.028
313.15 K, x2 = 0.1 | 875.32 ± 0.13 | – | 1.878 ± 0.029
313.15 K, x2 = 0.2001 | 877.95 ± 0.13 | – | 2.1 ± 0.033
313.15 K, x2 = 0.2997 | 880.94 ± 0.13 | – | 2.402 ± 0.038
313.15 K, x2 = 0.4 | 884.32 ± 0.13 | – | 2.811 ± 0.044
313.15 K, x2 = 0.4994 | 888.09 ± 0.13 | – | 3.371 ± 0.053
313.15 K, x2 = 0.5991 | 892.35 ± 0.13 | – | 4.181 ± 0.065
313.15 K, x2 = 0.7 | 897.2 ± 0.13 | – | 5.366 ± 0.084
313.15 K, x2 = 0.801 | 902.61 ± 0.13 | – | 7.126 ± 0.11
313.15 K, x2 = 0.8927 | 908.08 ± 0.13 | – | 9.952 ± 0.16
318.15 K, x2 = 0 | 869.86 ± 0.13 | – | 1.621 ± 0.025
318.15 K, x2 = 0.1 | 871.69 ± 0.13 | – | 1.71 ± 0.027
318.15 K, x2 = 0.2001 | 874.3 ± 0.13 | – | 1.898 ± 0.03
318.15 K, x2 = 0.2997 | 877.27 ± 0.13 | – | 2.151 ± 0.034
318.15 K, x2 = 0.4 | 880.63 ± 0.13 | – | 2.494 ± 0.039
318.15 K, x2 = 0.4994 | 884.4 ± 0.13 | – | 2.954 ± 0.046
318.15 K, x2 = 0.5991 | 888.66 ± 0.13 | – | 3.609 ± 0.057
318.15 K, x2 = 0.7 | 893.49 ± 0.13 | – | 4.552 ± 0.071
318.15 K, x2 = 0.801 | 898.9 ± 0.13 | – | 5.932 ± 0.093
318.15 K, x2 = 0.8927 | 904.4 ± 0.13 | – | 8.189 ± 0.13
323.15 K, x2 = 0 | 866.31 ± 0.13 | – | 1.494 ± 0.024
323.15 K, x2 = 0.1 | 868.04 ± 0.13 | – | 1.564 ± 0.025
323.15 K, x2 = 0.2001 | 870.63 ± 0.13 | – | 1.723 ± 0.027
323.15 K, x2 = 0.2997 | 873.58 ± 0.13 | – | 1.936 ± 0.03
323.15 K, x2 = 0.4 | 876.93 ± 0.13 | – | 2.224 ± 0.035
323.15 K, x2 = 0.4994 | 880.69 ± 0.13 | – | 2.604 ± 0.041
323.15 K, x2 = 0.5991 | 884.94 ± 0.13 | – | 3.14 ± 0.049
323.15 K, x2 = 0.7 | 889.76 ± 0.13 | – | 3.899 ± 0.061
323.15 K, x2 = 0.801 | 895.17 ± 0.13 | – | 4.99 ± 0.078
323.15 K, x2 = 0.8927 | 900.68 ± 0.13 | – | 6.785 ± 0.11
328.15 K, x2 = 0 | 862.76 ± 0.13 | – | 1.384 ± 0.022
328.15 K, x2 = 0.1 | 864.39 ± 0.14 | – | 1.435 ± 0.023
328.15 K, x2 = 0.2001 | 866.94 ± 0.14 | – | 1.569 ± 0.025
328.15 K, x2 = 0.2997 | 869.86 ± 0.14 | – | 1.752 ± 0.027
328.15 K, x2 = 0.4 | 873.2 ± 0.14 | – | 1.994 ± 0.031
328.15 K, x2 = 0.4994 | 876.94 ± 0.14 | – | 2.311 ± 0.036
328.15 K, x2 = 0.5991 | 881.18 ± 0.13 | – | 2.751 ± 0.043
328.15 K, x2 = 0.7 | 885.99 ± 0.13 | – | 3.367 ± 0.053
328.15 K, x2 = 0.801 | 891.4 ± 0.13 | – | 4.238 ± 0.066
328.15 K, x2 = 0.8927 | 896.92 ± 0.13 | – | 5.705 ± 0.089
333.15 K, x2 = 0 | 859.2 ± 0.14 | – | 1.284 ± 0.021
333.15 K, x2 = 0.1 | 860.72 ± 0.14 | – | 1.322 ± 0.021
333.15 K, x2 = 0.2001 | 863.23 ± 0.14 | – | 1.436 ± 0.023
333.15 K, x2 = 0.2997 | 866.13 ± 0.14 | – | 1.59 ± 0.025
333.15 K, x2 = 0.4 | 869.45 ± 0.14 | – | 1.797 ± 0.028
333.15 K, x2 = 0.4994 | 873.17 ± 0.14 | – | 2.061 ± 0.032
333.15 K, x2 = 0.5991 | 877.4 ± 0.14 | – | 2.426 ± 0.038
333.15 K, x2 = 0.7 | 882.2 ± 0.14 | – | 2.93 ± 0.046
333.15 K, x2 = 0.801 | 887.6 ± 0.14 | – | 3.632 ± 0.057
333.15 K, x2 = 0.8927 | 893.12 ± 0.13 | – | 4.772 ± 0.075
